The values below come from ChEMBL document CHEMBL1201862, “PubChem BioAssay data set” (2004).

Assay in all cases: DTP human tumour cell line panel, 48 h
In assay [1] the test system is SK-OV-3.
Assay [2] deals with TK-10.
Assay [3] has as its system HT-29.
The test system of assay [4] is SNB-19.
The test system of assay [5] is Hs-578T.
Assay [6] concerns OVCAR-8.
Assay [7] relates to CAKI-1.
The test system of assay [8] is SR.
The subject of assay [9] is CCRF-CEM.
In assay [10] the test system is OVCAR-5.
For assay [11], the system named is SF-539.
Assay [12] relates to SK-MEL-28.
For assay [13], the system named is HCC 2998.
The subject of assay [14] is NCI-H522.
Assay [15] relates to SNB-75.
Assay [16] deals with MOLT-4.
The test system of assay [17] is BT-549.
Assay [18] deals with OVCAR-3.
Assay [19] deals with HCT-116.

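The compound was tested at five concentrations on cells cultured in 96-well plates, with a 48-hour exposure period. Here, GI50 denotes the concentration required for 50% inhibition of growth.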 Calls of active or inactive are those of the source. No stated cut-off is given here; in the data, active = GI50 up to about 1.1 µM and inactive = higher. Where a SMILES comes first, the peptide text is derived from it. [ ]: non-standard residue; d: D form. The star is where a group is joined. ξ: configuration not given here. Propanoyl(3-(4-MeO-Ph)) = COc1ccc(CCC(=O)*)cc1; Thr(3ξ) = CC(O)[C@H](N)C(=O)O; dNMeL = CN[C@H](CC(C)C)C(=O)O; OBn = c1ccc(CO*)cc1; ξLac = CC(O)C(=O)O

On to `CC(C)/C(Cl)=N/OC(=O)Nc1ccc(F)c(Cl)c1`, for which the GI50 (in general, the concentration giving 50% growth inhibition) in assay [1] was 16.4 µM (inactive); in assay [2], 17.9 µM (inactive); in [3], 5.69 µM (inactive); in [4], 22.6 µM (inactive); in assay [5], 21.6 µM (inactive); in assay [6], 17.4 µM (inactive). Besides, the GI50 in [7] was 1.68 µM (inactive); in [8], 1.56 µM (inactive); in [9], 1.31 µM (inactive); in assay [10] it was 19.2 µM (inactive); in assay [11], 6.43 µM (inactive); in [12], 2.23 µM (inactive). Further, the GI50 in [13] was 14.6 µM (inactive); in [14], 1.65 µM (inactive); in assay [15] it was 17.8 µM (inactive); in assay [16] it was 1.94 µM (inactive); in assay [17], 5.06 µM (inactive); in [18], 3.4 µM (inactive). Besides, the GI50 in [19] is 2.54 µM (inactive).
In the case of `O=C1C(CN2CCCC2)CCCC1CN1CCCC1` (stereo not given), the GI50 in [1] was 17.4 µM (inactive); in assay [2] it was 2.19 µM (inactive); in [3], 14.7 µM (inactive); in assay [4] it was > 100 µM (inactive); in assay [5] it was 28 µM (inactive); in [6] it was 4.37 µM (inactive). Moreover, the GI50 was 1.64 µM (inactive) in assay [7]; 3.04 µM (inactive) in assay [8]; 0.0318 µM (active) in assay [9]; 5.98 µM (inactive) in assay [10]; 7.36 µM (inactive) in [11]; 3.85 µM (inactive) in [12]. Moreover, the GI50 in [13] is 18.3 µM (inactive); in assay [14], 0.0495 µM (active); in assay [15], 19.7 µM (inactive); in assay [16] it was 0.258 µM (active); in [17], 1.87 µM (inactive); in [18], 5.01 µM (inactive). The GI50 in assay [19] is 1.8 µM (inactive).
Consider `COc1ccc(CCC(=O)OC(C)[C@H](NC(=O)[C@@H](CC(C)C)N(C)C(=O)[C@@H]2CCCN2C(=O)C(C)O)C(=O)OCc2ccccc2)cc1` (stereo not given in full) (H-[ξLac]P[dNMeL][Thr(3ξ)](Propanoyl(3-(4-MeO-Ph)))-OBn), for which the GI50 in [1] is 84.1 µM (inactive); in assay [2], 18.9 µM (inactive); in assay [3], 36.5 µM (inactive); in assay [4], 66.2 µM (inactive); in [5], 12.9 µM (inactive); in [6], 96.2 µM (inactive). For the same molecule, the GI50 in [7] was > 100 µM (inactive); in assay [8] it was 34.4 µM (inactive); in [9] it was 26.9 µM (inactive); in assay [10], > 100 µM (inactive); in assay [11] it was 24.6 µM (inactive); in assay [12], 17.8 µM (inactive). The GI50 in [13] was 40.4 µM (inactive); in assay [14], 24.3 µM (inactive); in assay [15], 19.9 µM (inactive); in assay [16] it was 24.3 µM (inactive); in [17], 43.6 µM (inactive); in assay [18], 29.8 µM (inactive). In addition, in assay [19], the GI50 was 43.7 µM (inactive).
On to `Cc1cc(NS(=O)(=O)c2ccc(NC(=O)c3ccc4nc5ccccc5c(Nc5ccc(S(=O)(=O)Nc6cc(C)on6)cc5)c4c3)cc2)no1`, for which the GI50 in assay [1], in [2], in [3], in [4], in assay [5] and in assay [6] was > 50 µM (inactive) each time. Besides, the GI50 in assay [7], in assay [8], in assay [9], in assay [10], in [11] and in [12] was > 50 µM (inactive) throughout. Also, the GI50 in assay [13], in assay [14], in [15], in [16], in assay [17] and in assay [18] was > 50 µM (inactive) each time. The GI50 in assay [19] is > 50 µM (inactive).
Regarding `O=C1c2cccnc2C(=O)c2c1nc1ccccc1c2-c1cncc(-c2c3c(nc4ccccc24)C(=O)c2cccnc2C3=O)c1`, the GI50 was 0.363 µM (active) in assay [1]; 0.458 µM (active) in assay [2]; 0.327 µM (active) in [3]; 0.22 µM (active) in [4]; 0.39 µM (active) in assay [5]; 0.0634 µM (active) in assay [6]. Moreover, the GI50 in assay [7] was 0.332 µM (active); in assay [8], < 0.01 µM (active); in assay [9], 0.198 µM (active); in [10], 1.8 µM (inactive); in [11], 2.19 µM (inactive); in assay [12], 0.22 µM (active). Besides, the GI50 was 0.359 µM (active) in assay [13]; 0.103 µM (active) in assay [14]; 0.398 µM (active) in assay [15]; 0.117 µM (active) in assay [16]; 0.502 µM (active) in [17]; 0.0752 µM (active) in assay [18]. For the same molecule, the GI50 in assay [19] was 0.139 µM (active).
Consider `C/C=C\C1OC1(C)c1cc(=O)c2c(C)cc3c(c2o1)C(=O)c1c(O)c(C2CC(C)(N(C)C)C(OC(C)=O)C(C)O2)cc(C2CC(N(C)C)C(O)C(C)O2)c1C3=O` (stereo not given), for which the GI50 in assay [1] was 0.00432 µM (active); in assay [2], 0.0113 µM (active); in assay [3] it was < 0.00375 µM (active); in assay [4] it was 0.00621 µM (active); in assay [5], 0.00766 µM (active); in assay [6] it was < 0.00375 µM (active). Further, the GI50 in [7] is < 0.00375 µM (active); in assay [8] it was < 0.00375 µM (active); in [9] it was < 0.00375 µM (active); in [10], 0.00546 µM (active); in [11], 0.00433 µM (active); in [12], 0.0152 µM (active). Moreover, the GI50 was < 0.00375 µM (active) in assay [13]; < 0.00375 µM (active) in assay [14]; < 0.00375 µM (active) in assay [15]; < 0.00375 µM (active) in assay [16]; 0.00596 µM (active) in [17]; 0.00451 µM (active) in assay [18]. The GI50 in assay [19] is < 0.00375 µM (active).
For `C/C(=N\Nc1nc2cc(Cl)ccc2s1)c1ccccn1`, the GI50 in assay [1] is 0.404 µM (active); in [2], 2.74 µM (inactive); in assay [3], 0.0824 µM (active); in assay [4], 1.01 µM (active); in assay [5], 2.89 µM (inactive); in assay [6] it was 0.177 µM (active). The GI50 in assay [7] is 0.0653 µM (active); in assay [8], 0.228 µM (active); in assay [9] it was 0.373 µM (active); in assay [10] it was 2.77 µM (inactive); in assay [11], 1.21 µM (inactive); in [12], 2.56 µM (inactive). In addition, the GI50 in assay [13] is 11.5 µM (inactive); in [14] it was 0.189 µM (active); in assay [15], 1.72 µM (inactive); in [16], 0.0346 µM (active); in assay [17], 4.9 µM (inactive); in assay [18] it was 0.0946 µM (active). In addition, the GI50 in [19] is 0.301 µM (active).
As to `O=C1C=CC(=O)C(CNc2ccc(C(=O)OC34CC5CC(CC(C5)C3)C4)cc2)=C1`, the GI50 in assay [1] was 20 µM (inactive); in assay [2], 11.5 µM (inactive); in [3], 9.44 µM (inactive); in [4], 12.8 µM (inactive); in assay [5], 2.38 µM (inactive); in assay [6], 5.11 µM (inactive). For the same molecule, the GI50 in assay [7] was 0.753 µM (active); in [8] it was 3.81 µM (inactive); in [9], 1.34 µM (inactive); in [10], 15.1 µM (inactive); in assay [11], 2.49 µM (inactive); in assay [12], 4.69 µM (inactive). The GI50 is 15 µM (inactive) in [13]; 0.776 µM (active) in assay [14]; 3.39 µM (inactive) in assay [15]; 1.51 µM (inactive) in [16]; 5.12 µM (inactive) in assay [17]; 3.06 µM (inactive) in assay [18]. For the same molecule, in assay [19], the GI50 is 10 µM (inactive).
For the molecule `CC(C)(C)CC(C)(C)c1ccc(O)c(C[N+](C)(C)[O-])c1`, the GI50 in [1] was > 100 µM (inactive); in assay [2] it was > 100 µM (inactive); in assay [3], 73.6 µM (inactive); in [4], > 100 µM (inactive); in [5] it was 65.6 µM (inactive); in [6] it was > 100 µM (inactive). The GI50 was > 100 µM (inactive) in assay [7]; 64.9 µM (inactive) in [8]; 41.8 µM (inactive) in [9]; > 100 µM (inactive) in assay [10]; > 100 µM (inactive) in assay [11]; > 100 µM (inactive) in [12]. Besides, the GI50 was 31.9 µM (inactive) in assay [13]; 53.5 µM (inactive) in assay [14]; 91.2 µM (inactive) in assay [15]; 53.6 µM (inactive) in assay [16]; > 100 µM (inactive) in assay [17]; 58.5 µM (inactive) in [18]. The GI50 in assay [19] is 98.6 µM (inactive).
With `CC(C)c1c(O)c(O)c2c(c1O)C(=O)C(O)=C1C(C)(C)CCC[C@@]12C`, the GI50 in assay [1] is 3.81 µM (inactive); in assay [2], 3.86 µM (inactive); in assay [3], 2.94 µM (inactive); in assay [4], 4.76 µM (inactive); in [5], 4.31 µM (inactive); in [6], 2.71 µM (inactive). Besides, the GI50 in [7] was 2.61 µM (inactive); in assay [8] it was 4.05 µM (inactive); in [9], 3.48 µM (inactive); in assay [10] it was 5.18 µM (inactive); in assay [11] it was 3.59 µM (inactive); in [12], 5.85 µM (inactive). For the same molecule, the GI50 in [13] is 3.37 µM (inactive); in [14] it was 3.56 µM (inactive); in assay [15], 3.05 µM (inactive); in [16], 2.96 µM (inactive); in assay [17], 3.29 µM (inactive); in assay [18], 3.13 µM (inactive). The GI50 in [19] is 3.4 µM (inactive).
